This assay concerns the target HPAO-1 (Ogataea angusta, UniProt P12807). The experiment in a line: phenylhydrazone formation, absorbance. The class given is binding. The conditions noted are these: covalent; adduct with TPQ cofactor.

Sequence of HPAO-1 (P12807 whole entry): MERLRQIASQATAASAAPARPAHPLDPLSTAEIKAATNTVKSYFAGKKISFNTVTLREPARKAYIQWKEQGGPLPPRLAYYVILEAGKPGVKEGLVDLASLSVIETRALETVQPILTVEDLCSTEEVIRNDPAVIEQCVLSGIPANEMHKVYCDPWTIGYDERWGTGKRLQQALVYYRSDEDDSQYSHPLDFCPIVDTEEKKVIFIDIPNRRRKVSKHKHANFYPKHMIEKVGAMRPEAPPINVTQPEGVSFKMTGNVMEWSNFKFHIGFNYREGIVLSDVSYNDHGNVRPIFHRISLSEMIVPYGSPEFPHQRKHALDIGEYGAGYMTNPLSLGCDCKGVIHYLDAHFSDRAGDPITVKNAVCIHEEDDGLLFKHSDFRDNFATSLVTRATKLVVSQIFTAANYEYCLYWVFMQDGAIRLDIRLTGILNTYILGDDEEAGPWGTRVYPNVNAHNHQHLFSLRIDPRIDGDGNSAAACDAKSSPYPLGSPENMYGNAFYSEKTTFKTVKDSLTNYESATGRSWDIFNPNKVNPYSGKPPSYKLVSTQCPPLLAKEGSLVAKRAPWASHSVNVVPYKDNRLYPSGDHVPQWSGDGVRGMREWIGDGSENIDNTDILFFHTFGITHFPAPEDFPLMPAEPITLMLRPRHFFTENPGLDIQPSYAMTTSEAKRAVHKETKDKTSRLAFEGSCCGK

In the case of `NNc1ccccc1` [phenylhydrazine], the “rate of phenylhydrazone formation” value was determined as 0.0078 ± 0.0007 s⁻¹.

The record behind these values is paper PMC2851405 (Biochemistry, 2010).
